Data taken from patent publication US4883801A, “Xanthine derivative pest control agents” (priority 1986, dated 1989).
Several values for one entry are separate records, joined by “and”; a condition that tells them apart may be missing. Equal entries are not always repeated.

Experiments:
[1] = tested on: light organ octopamine-stimulated adenylate cyclase; conditions: cited from earlier work
[2] = tested on: hornworm nerve cord PDE (cyclic AMP phosphodiesterase); experiment: Inhibition of cyclic AMP phosphodiesterase activity in homogenates of tobacco hornworm nerve cord; format: biochemical, Manduca sexta; conditions: for activity of structurally similar compounds tested as described in Example 46: Example 47
Procedure: Nerve cord was dissected from 40-60 mm long M. sexta larvae, cleaned, and homogenized (2 mg/ml) in 6 Mm Tris-maleate, pH 7.4. PDE activity was measured (4 min. incubation at 30° C.) in an assay system (0.1 ml) containing 80 mM Tris-maleate, pH 7.4; 6 mM Mg--SO4; 10^-7 M^3 H-cyclic AMP; and tissue homogenate (0.02 ml). Nerve cord was evaluated in the presence and the absence of the xanthine derivative. For purposes of the evaluation, the rate of formation of ^3 H-5' AMP was measured using the technique described in Filburn, C. […] The values shown in FIG. 1D are the mean (±SEM) of three separate experiments.

[3] = Tissue level of theophylline in larvae after feeding on sprayed leaves (immunoenzymatic assay); format: in vivo, Manduca sexta; conditions: 1% spray, three days of feeding; mean ± deviation, two groups of six pooled animals; 4320 min; read-out: internal theophylline concentration of larvae
Procedure: To determine if the dosage of xanthine derivatives described in experiments 4, 7 and 8-11 and ingested by the larvae (causing pestistatic and pesticidal activity in vivo) were actually absorbed by the animals and were sufficient to inhibit PDE in vitro, additional experiments were carried out in order to estimate tissue levels of xanthine derivative following three days of feeding on various doses of the derivative. Groups of six larvae were placed on leaves treated with vehicle or theophylline spray. After three days, leaf area was recorded and larvae (alive or dead) were rinsed to remove any compound adhering to their cuticle, homogenized whole, centrifuged, and the cell-free supernatant assayed for theophylline content by immunoenzymatic assay (Emit-AAD theophylline assay (Syva Company, Palo Alto, CA.)). […] From mammalian studies, it is known that theophylline penetrates freely into all body compartments (Rall, T. W., supra.). […] This observation tends to rule out the hypothesis wherein adenosine receptors are involved as a mechanism for the antifeeding effects of the xanthine derivatives, since, in vertebrates, xanthine derivatives such as theophylline are competitive adenosine receptor antagonists, but exert such antagonism at much lower concentrations, typically 1-25 micromoles. […]

[4] = tested on: Manduca sexta (tobacco hornworm) larvae; experiment: Antifeeding test: tomato leaves sprayed with compound, tobacco hornworm larvae; format: in vivo
Callosobrucaus chinensis = conditions: concentration of 1.5%; cited from earlier work
adenosine receptor = conditions: Bruns et al.; cited from earlier work
[5] = tested on: larvae of Manduca sexta (tobacco hornworm); experiment: Feeding on artificial media containing the test material; format: in vivo; conditions: concentrations found naturally in undried tea leaves or coffee beans
Procedure: Various concentrations of finely powdered tea leaves or powdered coffee beans were mixed in artificial media which was then plated out in small petri dishes and allowed to harden. […] At concentrations greater than 10% (for coffee) or 3% (for tea), larvae were killed within 24 hours.
The larvae of Manduca sexta were fed on either artificial or natural food. When added to artificial media, caffeine (the major methylxanthine found in tea and coffee) exerted behavioral effects that were qualitatively similar to those of the tea and coffee described above. […] Further, the dried tea leaves, which contain 2-3 times the caffeine content of dried coffee beans, were about 2-3 times as effective as coffee beans in inhibiting weight gain. Further, the concentrations of caffeine which are found naturally in undried tea leaves (0.68-2.1%) or coffee beans (0.8-1.8%) were sufficient to kill most Manduca larvae. Thus, caffeine functions as an endogenous insecticide.

| SMILES | potency as partial agonist relative to octopamine [1] | activity of structurally similar compounds tested as described in Example 46 [2] | inhibition of hornworm nerve cord PDE activity in vitro ([2]; at the internal concentration found (4.1 mM)) [%] | concentration [3] [µM] | inhibition of leaf consumption ([4]; 1% spray, three days) | Vmax (percent inhibition of feeding at the highest dose used) ([4]; highest dose usually a 3% spray solution) [%] | EC50 (spray concentration required to cause 50% inhibition of feeding) ([4]; spray on tomato leaves, calculated from dose-response curves, Manduca sexta 6 per leaf) | sterility (Callosobrucaus chinensis) [%] | weaker than theophylline as an adenosine antagonist (adenosine receptor) [fold] | PDE inhibition (in words) ([2]; FIG. 1D) | concentrations sufficient to kill most Manduca larvae [5] | EC50 (spray concentration required to cause 50% inhibition of feeding) ([4]; in vivo) | Vmax (percent inhibition of feeding at the highest dose used) ([4]; in vivo) | antifeeding effect (in words) ([4]; in vivo) |
| --- | --- | --- | --- | --- | --- | --- | --- | --- | --- | --- | --- | --- | --- | --- |
| CNC=Nc1ccc(Cl)cc1C [DCDM, N-demethylchlordimeform] | about six-fold more potent than octopamine | – | – | – | – | – | – | – | – | – | – | – | – | – |
| Cn1c(=O)c2[nH]cnc2n(C)c1=O [Example 15, 1,3-dimethyl-xanthine (theophylline), reference compound] | – | active | > 80 | 4100 ± 1100 | about 50% | 94 | 1.5 % (gm/100 ml) | – | – | – | – | – | – | – |
| Cn1c(=O)c2c(ncn2C)n(C)c1=O [Example 23, 1,3,7-trimethyl-xanthine (caffeine)] | – | active | – | – | – | – | – | ~100 | 10 | about equally potent | 0.68-2.1% and 0.8-1.8% | 0.3 | 98 | somewhat more potent than theophylline |
